Laboratory results as given in ChEMBL document CHEMBL4321837, “Discovery of Potent and Orally Effective Dual Janus Kinase 2/FLT3 Inhibitors for the Treatment of Acute Myelogenous Leukemia and Myeloproliferative Neoplasms” (J Med Chem, 2019).

Assays:
MOLM-13 = assay: Antiproliferative activity against FLT3-ITD-positive human MOLM13 cells assessed as reduction in cell growth after 72 hrs by MTT assay; assay type: functional, cell-based; details: MOLM-13, 72 h
[1] = molecular target: Tyrosine-protein kinase JAK1 (Homo sapiens, UniProt P23458); assay: Inhibition of human JAK1 (866 to end residues) assessed as residual activity at 100 nM using GEEPLYWSFPAKK as substrate after 40 mins in presence of [gamma33P]-ATP by scintillation counting based radiometric assay relative to control
Sequence of Tyrosine-protein kinase JAK1 (P23458 whole entry): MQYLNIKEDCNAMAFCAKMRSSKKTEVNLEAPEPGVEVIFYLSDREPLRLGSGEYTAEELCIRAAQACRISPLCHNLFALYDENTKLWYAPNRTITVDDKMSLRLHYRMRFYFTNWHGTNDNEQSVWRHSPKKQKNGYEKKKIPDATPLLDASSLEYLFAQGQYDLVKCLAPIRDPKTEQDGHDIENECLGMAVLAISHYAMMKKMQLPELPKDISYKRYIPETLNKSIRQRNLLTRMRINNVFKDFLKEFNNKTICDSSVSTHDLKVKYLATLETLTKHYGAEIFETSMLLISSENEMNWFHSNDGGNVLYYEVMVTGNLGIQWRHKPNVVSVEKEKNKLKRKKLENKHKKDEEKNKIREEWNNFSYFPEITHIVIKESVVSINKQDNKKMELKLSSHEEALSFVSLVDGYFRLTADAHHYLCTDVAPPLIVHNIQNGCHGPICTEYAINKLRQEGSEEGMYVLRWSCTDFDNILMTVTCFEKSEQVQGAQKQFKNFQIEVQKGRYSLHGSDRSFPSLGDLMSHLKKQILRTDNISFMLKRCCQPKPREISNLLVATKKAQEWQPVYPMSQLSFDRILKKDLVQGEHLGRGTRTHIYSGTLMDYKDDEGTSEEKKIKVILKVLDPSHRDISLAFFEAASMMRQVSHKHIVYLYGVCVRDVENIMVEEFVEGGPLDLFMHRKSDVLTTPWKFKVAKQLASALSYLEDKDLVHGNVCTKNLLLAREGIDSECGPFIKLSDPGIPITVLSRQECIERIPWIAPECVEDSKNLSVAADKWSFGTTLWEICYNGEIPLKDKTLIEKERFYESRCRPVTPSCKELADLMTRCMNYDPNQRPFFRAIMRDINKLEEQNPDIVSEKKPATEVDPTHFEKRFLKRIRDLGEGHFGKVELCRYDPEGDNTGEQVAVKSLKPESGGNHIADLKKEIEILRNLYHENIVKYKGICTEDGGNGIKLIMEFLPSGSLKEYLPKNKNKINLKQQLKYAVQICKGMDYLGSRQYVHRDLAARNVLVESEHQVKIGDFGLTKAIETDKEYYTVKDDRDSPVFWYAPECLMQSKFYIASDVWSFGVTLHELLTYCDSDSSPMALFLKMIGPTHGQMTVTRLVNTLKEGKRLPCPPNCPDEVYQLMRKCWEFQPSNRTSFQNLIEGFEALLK

[2] = molecular target: Tyrosine-protein kinase JAK2 (Homo sapiens, UniProt O60674); assay: Inhibition of human JAK2 (808 to end residues) assessed as residual activity at 100 nM using KTFCGTPEYLAP as substrate after 40 mins in presence of [gamma33P]-ATP by scintillation counting based radiometric assay relative to control
Sequence of Tyrosine-protein kinase JAK2 (O60674 whole entry): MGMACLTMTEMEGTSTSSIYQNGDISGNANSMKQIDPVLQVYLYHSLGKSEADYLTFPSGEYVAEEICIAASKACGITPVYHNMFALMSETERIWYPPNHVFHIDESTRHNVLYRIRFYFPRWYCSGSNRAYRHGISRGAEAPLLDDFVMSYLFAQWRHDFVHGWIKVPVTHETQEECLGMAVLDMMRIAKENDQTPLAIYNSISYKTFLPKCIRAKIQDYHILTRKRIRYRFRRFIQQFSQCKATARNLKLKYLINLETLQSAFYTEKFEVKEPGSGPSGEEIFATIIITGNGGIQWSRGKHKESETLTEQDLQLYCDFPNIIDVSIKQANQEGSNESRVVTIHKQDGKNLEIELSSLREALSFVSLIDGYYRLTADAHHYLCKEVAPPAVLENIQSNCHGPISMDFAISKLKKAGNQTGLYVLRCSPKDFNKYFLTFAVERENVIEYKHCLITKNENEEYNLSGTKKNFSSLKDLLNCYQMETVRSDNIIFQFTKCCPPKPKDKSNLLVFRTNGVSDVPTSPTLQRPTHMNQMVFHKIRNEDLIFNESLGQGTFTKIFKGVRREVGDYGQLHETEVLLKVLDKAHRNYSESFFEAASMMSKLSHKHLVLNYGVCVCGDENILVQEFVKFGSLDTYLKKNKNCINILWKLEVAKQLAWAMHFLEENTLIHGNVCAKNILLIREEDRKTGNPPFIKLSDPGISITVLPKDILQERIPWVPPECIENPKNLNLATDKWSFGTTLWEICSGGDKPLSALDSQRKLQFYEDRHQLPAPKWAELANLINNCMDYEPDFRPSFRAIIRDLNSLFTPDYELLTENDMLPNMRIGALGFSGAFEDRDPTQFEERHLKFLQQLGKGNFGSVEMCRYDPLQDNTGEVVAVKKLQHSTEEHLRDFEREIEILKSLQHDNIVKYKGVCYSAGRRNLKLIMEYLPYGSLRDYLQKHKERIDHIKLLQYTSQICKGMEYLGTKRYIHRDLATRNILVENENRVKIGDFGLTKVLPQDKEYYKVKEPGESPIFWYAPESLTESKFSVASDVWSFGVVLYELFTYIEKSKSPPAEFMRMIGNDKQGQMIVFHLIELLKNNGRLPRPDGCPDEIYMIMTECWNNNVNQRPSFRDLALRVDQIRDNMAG

[3] = molecular target: T1, Tyrosine-protein kinase JAK3 (Homo sapiens) (UniProt P52333); assay: Inhibition of human JAK3 (781 to end residues) assessed as residual activity at 100 nM using GGEEEEYFELVKK as substrate after 40 mins in presence of [gamma33P]-ATP by scintillation counting based radiometric assay relative to control
T1 sequence (whole entry): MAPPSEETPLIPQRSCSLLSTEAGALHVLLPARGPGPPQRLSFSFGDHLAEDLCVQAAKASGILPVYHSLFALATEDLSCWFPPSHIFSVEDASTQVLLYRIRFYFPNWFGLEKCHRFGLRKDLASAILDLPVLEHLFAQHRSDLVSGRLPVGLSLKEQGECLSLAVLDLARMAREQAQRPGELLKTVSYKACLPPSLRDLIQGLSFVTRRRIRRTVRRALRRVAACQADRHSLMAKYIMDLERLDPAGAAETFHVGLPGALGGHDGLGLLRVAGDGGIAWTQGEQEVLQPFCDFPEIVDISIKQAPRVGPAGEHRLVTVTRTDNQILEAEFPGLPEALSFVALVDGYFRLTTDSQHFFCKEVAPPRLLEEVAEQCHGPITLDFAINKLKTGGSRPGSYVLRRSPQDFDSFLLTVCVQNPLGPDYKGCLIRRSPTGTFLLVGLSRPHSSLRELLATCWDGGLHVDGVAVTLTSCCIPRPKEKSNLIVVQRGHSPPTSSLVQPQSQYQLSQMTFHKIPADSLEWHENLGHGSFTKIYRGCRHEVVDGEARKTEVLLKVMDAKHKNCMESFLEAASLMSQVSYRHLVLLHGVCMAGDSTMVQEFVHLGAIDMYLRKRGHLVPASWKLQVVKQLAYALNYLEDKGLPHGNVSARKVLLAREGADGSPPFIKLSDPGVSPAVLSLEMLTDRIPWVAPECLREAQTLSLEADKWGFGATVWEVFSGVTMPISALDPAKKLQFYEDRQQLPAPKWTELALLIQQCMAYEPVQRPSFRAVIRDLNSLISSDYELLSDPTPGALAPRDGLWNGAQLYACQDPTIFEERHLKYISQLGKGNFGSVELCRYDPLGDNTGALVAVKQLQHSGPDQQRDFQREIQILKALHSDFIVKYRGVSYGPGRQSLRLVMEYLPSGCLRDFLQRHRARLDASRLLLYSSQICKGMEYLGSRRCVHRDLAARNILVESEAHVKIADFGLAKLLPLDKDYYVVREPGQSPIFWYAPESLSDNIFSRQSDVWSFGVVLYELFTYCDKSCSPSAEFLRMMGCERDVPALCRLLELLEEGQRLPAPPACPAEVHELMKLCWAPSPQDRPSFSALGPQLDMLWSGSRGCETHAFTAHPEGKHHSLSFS

MV4-11 = assay: Antiproliferative activity against FLT3-ITD-positive human MV4-11 cells assessed as reduction in cell growth after 72 hrs by MTT assay; assay type: functional, cell-based; details: MV4-11, 72 h
[4] = molecular target: Receptor-type tyrosine-protein kinase FLT3 (Homo sapiens) (UniProt P36888); assay: Inhibition of human FLT3 (564 to end residues) assessed as residual activity at 100 nM using EAIYAAPFAKKK as substrate after 40 mins in presence of [gamma33P]-ATP by scintillation counting based radiometric assay relative to control
Sequence of Receptor-type tyrosine-protein kinase FLT3 (Homo sapiens) (P36888 whole entry): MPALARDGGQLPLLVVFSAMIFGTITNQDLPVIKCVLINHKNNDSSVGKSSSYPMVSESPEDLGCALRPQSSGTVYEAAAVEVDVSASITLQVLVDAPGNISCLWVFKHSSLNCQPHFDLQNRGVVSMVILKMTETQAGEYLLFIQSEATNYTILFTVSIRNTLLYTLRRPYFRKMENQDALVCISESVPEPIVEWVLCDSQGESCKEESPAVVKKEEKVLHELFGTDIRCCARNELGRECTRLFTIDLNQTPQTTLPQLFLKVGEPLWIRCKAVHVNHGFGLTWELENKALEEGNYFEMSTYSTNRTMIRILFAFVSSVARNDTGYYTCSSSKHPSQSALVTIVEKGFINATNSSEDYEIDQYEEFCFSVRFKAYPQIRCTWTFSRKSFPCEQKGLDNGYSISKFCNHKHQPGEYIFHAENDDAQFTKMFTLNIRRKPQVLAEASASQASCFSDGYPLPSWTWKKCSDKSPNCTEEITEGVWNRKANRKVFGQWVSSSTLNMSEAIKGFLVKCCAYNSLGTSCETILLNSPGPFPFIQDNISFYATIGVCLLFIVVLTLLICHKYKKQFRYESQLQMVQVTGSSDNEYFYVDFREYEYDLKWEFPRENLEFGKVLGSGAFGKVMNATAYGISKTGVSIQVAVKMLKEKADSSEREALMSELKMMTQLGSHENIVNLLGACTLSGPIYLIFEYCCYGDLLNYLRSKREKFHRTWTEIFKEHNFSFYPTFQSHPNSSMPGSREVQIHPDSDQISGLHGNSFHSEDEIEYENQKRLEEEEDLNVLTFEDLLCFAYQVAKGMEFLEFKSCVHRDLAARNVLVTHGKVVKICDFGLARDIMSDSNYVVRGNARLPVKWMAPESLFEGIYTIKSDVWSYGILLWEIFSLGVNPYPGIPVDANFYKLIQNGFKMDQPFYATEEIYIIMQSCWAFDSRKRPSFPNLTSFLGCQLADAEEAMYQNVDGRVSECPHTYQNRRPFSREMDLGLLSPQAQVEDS

CC(C)n1cc(-c2nc(Nc3ccc(N4CCC(N(C)C)CC4)c(F)c3)ncc2F)cn1
IC50 (MOLM-13): 540 nM | Activity [1]: 57% | Activity [2]: 6% | Activity [3]: 48% | IC50 (MV4-11): 32 nM | Activity [4]: 9%

CCCN(CCN1CCOCC1)C1CCN(c2ccc(Nc3ncc(C)c(-c4cnn(C(C)C)c4)n3)cc2F)CC1
IC50 (MOLM-13): 210 nM | Activity [1]: 20% | Activity [2]: 8% | Activity [3]: 9% | IC50 (MV4-11): 210 nM | Activity [4]: 8%

CCCn1cc(-c2nc(Nc3ccc(N4CCN(CC)CC4)c(F)c3)ncc2F)cn1
IC50 (MOLM-13): 410 nM | Activity [1]: 59% | Activity [2]: 27% | Activity [3]: 52% | IC50 (MV4-11): 61 nM | Activity [4]: 15%

Cc1cnc(Nc2ccc(N3CCC(N(C)CCN4CCCCC4)CC3)c(F)c2)nc1-c1cnn(C(C)C)c1
IC50 (MOLM-13): 170 nM | Activity [1]: 21% | Activity [2]: 4% | Activity [3]: 38% | IC50 (MV4-11): 12 nM | Activity [4]: 6%

CCN1CCN(c2ccc(Nc3ncc(F)c(-c4cnn(C5CCCC5)c4)n3)cc2F)CC1
IC50 (MOLM-13): 410 nM | Activity [1]: 57% | Activity [2]: 27% | Activity [3]: 68% | IC50 (MV4-11): 27 nM | Activity [4]: 12%

Cc1cnc(Nc2ccc(N3CCC(N(C)C)CC3)c(F)c2)nc1-c1cnn(C(C)C)c1
IC50 (MOLM-13): 100 nM | Activity [1]: 17% | Activity [2]: 5% | Activity [3]: 23% | IC50 (MV4-11): 5.4 nM | Activity [4]: 8%

CC(C)n1cc(-c2nc(Nc3ccc(N4CCC(N5CCCCC5)CC4)c(F)c3)ncc2F)cn1
IC50 (MOLM-13): 100 nM | Activity [1]: 36% | Activity [2]: 8% | Activity [3]: 47% | IC50 (MV4-11): 26 nM | Activity [4]: 10%

CCCN1CCC(n2cc(-c3nc(Nc4ccc(N5CCN(C)CC5)c(F)c4)ncc3F)cn2)CC1
IC50 (MOLM-13): 190 nM | IC50 (MV4-11): 110 nM

CCN(CCN1CCOCC1)C1CCN(c2ccc(Nc3ncc(C)c(-c4cnn(C(C)C)c4)n3)cc2F)CC1
IC50 (MOLM-13): 150 nM | Activity [1]: 23% | Activity [2]: 11% | Activity [3]: 33% | IC50 (MV4-11): 43 nM | Activity [4]: 7%

Cc1cnc(Nc2ccc(N3CCC(N(C)CCCCCO)CC3)c(F)c2)nc1-c1cnn(C(C)C)c1
IC50 (MOLM-13): > 10000 nM | IC50 (MV4-11): > 1000 nM

Cc1cnc(Nc2ccc(N3CCC(N(C)CCN4CCOCC4)CC3)c(F)c2)nc1-c1cnn(C(C)C)c1
IC50 (MOLM-13): 89 nM | Activity [1]: 20% | Activity [2]: 23% | Activity [3]: 37% | IC50 (MV4-11): 18 nM | Activity [4]: 5%

CCN1CCN(c2ccc(Nc3ncc(F)c(-c4cnn(C(C)C)c4)n3)c(F)c2)CC1
IC50 (MOLM-13): 850 nM | Activity [1]: 113% | Activity [2]: 39% | Activity [3]: 77% | IC50 (MV4-11): 57 nM | Activity [4]: 16%

CCN1CCN(c2ccc(Nc3ncc(C)c(-c4cnn(C(C)C)c4)n3)cc2F)CC1
IC50 (MOLM-13): 4000 nM | IC50 (MV4-11): 1100 nM

CCN1CCN(c2ccc(Nc3ncc(F)c(-c4cnn(C(C)C)c4)n3)cc2F)CC1
IC50 (MOLM-13): 250 nM | Activity [1]: 62% | Activity [2]: 17% | Activity [3]: 66% | IC50 (MV4-11): 31 nM | Activity [4]: 17%

CC(C)n1cc(-c2nc(Nc3ccc(N4CCN(C)CC4)cc3F)ncc2F)cn1
IC50 (MV4-11): 7800 nM

CCCn1cc(-c2nc(Nc3ccc(N4CCN(C)CC4)cc3F)ncc2F)cn1
IC50 (MOLM-13): 9700 nM | IC50 (MV4-11): 8100 nM

CCCCn1cc(-c2nc(Nc3ccc(N4CCN(C)CC4)c(F)c3)ncc2F)cn1
IC50 (MOLM-13): 540 nM | Activity [1]: 49% | Activity [2]: 15% | Activity [3]: 41% | IC50 (MV4-11): 27 nM | Activity [4]: 11%

Cc1cnc(Nc2ccc(N3CCC(NCCO)CC3)c(F)c2)nc1-c1cnn(C(C)C)c1
IC50 (MOLM-13): 550 nM | IC50 (MV4-11): 200 nM

CCCN(C)C1CCN(c2ccc(Nc3ncc(C)c(-c4cnn(C(C)C)c4)n3)cc2F)CC1
IC50 (MOLM-13): 47 nM | Activity [1]: 24% | Activity [2]: 3% | Activity [3]: 9% | IC50 (MV4-11): 7.3 nM | Activity [4]: 6%

Cc1cnc(Nc2ccc(N3CCC(CO)CC3)c(F)c2)nc1-c1cnn(C(C)C)c1
IC50 (MOLM-13): 840 nM | IC50 (MV4-11): 160 nM

CCCn1cc(-c2nc(Nc3ccc(N4CCN(CC)CC4)cc3F)ncc2F)cn1
IC50 (MOLM-13): > 10000 nM | IC50 (MV4-11): 4200 nM

Cc1cnc(Nc2ccc(N3CCC(N(C)CC4CCCO4)CC3)c(F)c2)nc1-c1cnn(C(C)C)c1 (stereo not given)
IC50 (MOLM-13): 70 nM | Activity [1]: 23% | Activity [2]: 10% | Activity [3]: 36% | IC50 (MV4-11): 30 nM | Activity [4]: 6%

CCCn1cc(-c2nc(Nc3ccc(N4CCN(C)CC4)c(F)c3)ncc2F)cn1
IC50 (MOLM-13): 490 nM | Activity [1]: 48% | Activity [2]: 19% | Activity [3]: 69% | IC50 (MV4-11): 57 nM | Activity [4]: 14%

Cc1cnc(Nc2ccc(N3CCC(N(C)CC4CC4)CC3)c(F)c2)nc1-c1cnn(C(C)C)c1
IC50 (MOLM-13): 31 nM | Activity [1]: 20% | Activity [2]: 15% | Activity [3]: 31% | IC50 (MV4-11): 8.1 nM | Activity [4]: 4%

CC(C)n1cc(-c2nc(Nc3ccc(N4CCN(C5CCN(C)CC5)CC4)c(F)c3)ncc2F)cn1
IC50 (MOLM-13): 590 nM | Activity [1]: 54% | Activity [2]: 10% | Activity [3]: 44% | IC50 (MV4-11): 36 nM | Activity [4]: 10%

CCCCN1CCC(n2cc(-c3nc(Nc4ccc(N5CCN(C)CC5)c(F)c4)ncc3F)cn2)CC1
IC50 (MOLM-13): 180 nM | Activity [1]: 68% | Activity [2]: 19% | Activity [3]: 32% | IC50 (MV4-11): 240 nM | Activity [4]: 13%

Cc1cnc(Nc2ccc(N3CCN(C)CC3)c(F)c2)nc1-c1cnn(C(C)C)c1
IC50 (MOLM-13): 120 nM | Activity [1]: 35% | Activity [2]: 3% | Activity [3]: 40% | IC50 (MV4-11): 42 nM | Activity [4]: 6%

CN(C)C1CCN(c2ccc(Nc3ncc(F)c(-c4cnn(C5CCCC5)c4)n3)cc2F)CC1
IC50 (MV4-11): 4500 nM

CCCCCCN(C)C1CCN(c2ccc(Nc3ncc(C)c(-c4cnn(C(C)C)c4)n3)cc2F)CC1
IC50 (MOLM-13): 210 nM | Activity [1]: 26% | Activity [2]: 18% | Activity [3]: 44% | IC50 (MV4-11): 70 nM | Activity [4]: 6%

CN1CCN(c2ccc(Nc3ncc(F)c(-c4cnn(C5CCCC5)c4)n3)cc2F)CC1
IC50 (MV4-11): 8300 nM

CCOCCN(C)C1CCN(c2ccc(Nc3ncc(C)c(-c4cnn(C(C)C)c4)n3)cc2F)CC1
IC50 (MOLM-13): 28 nM | Activity [1]: 19% | Activity [2]: 9% | Activity [3]: 28% | IC50 (MV4-11): 7.3 nM | Activity [4]: 5%

CC(C)n1cc(-c2nc(Nc3ccc(N4CCN(C)CC4)c(F)c3)ncc2F)cn1
IC50 (MOLM-13): 940 nM | IC50 (MV4-11): 26 nM
